Test results as given in patent publication US20180117176A1, “POROUS SILICON MICROPARTICLE-BASED CANCER VACCINES AND METHODS FOR POTENTIATING ANTI-TUMOR IMMUNITY” (The Methodist Hospital, priority 2015, published 2018).
Where a SMILES comes first, the peptide text is derived from it. The star is where a group is joined. Cbz = O=C(OCc1ccccc1)*

Experiments:
Type in all cases: cell-based, mouse
[1] = tested on: Ifn-α4 and Ifn-β genes; experiment: QPCR analysis of Ifn-α4 and Ifn-β gene expression in BMDCs; settings: BMDCs pre-treated with chemical inhibitor
Experimental: FIG. 3A, FIG. 3B, FIG. 3C, and FIG. 3D show PSM-induced IFN-I signaling in DCs. […] Cell culture medium served as the negative control. […] FIG. 3C is a QPCR analysis of mRNA levels of the Ifn-α4 and Ifn-β genes in BMDCs 5 hrs after co-incubation with PSM, free antigen, or PSM/OVA antigen. […] Data are presented as mean±S.D.; *, P <0.05, **, P <0.01 (see also FIG. 9A and FIG. 9B);
FIG. 4A, FIG. 4B, FIG. 4C, FIG. 4D, FIG. 4E, FIG. 4F, FIG. 4G, FIG. 4H, FIG. 4I, and FIG. 4J show TRIF and MAVS mediated PSM induced interferon type I (IFN-I) activation. FIG. 4A, FIG. 4B, FIG. 4C, and FIG. 4D illustrate PSM-induced changes of Ifn-α4 and Ifn-β gene expression in BMDCs infected with lentiviruses carrying shRNAs targeting the indicated genes. FIG. 4E, FIG. 4F, FIG. 4G, and FIG. 4H illustrate PSM-induced changes of Ifn-α4 and Ifn-β gene expression in BMDCs isolated from wild-type or gene knockout mice. […] FIG. 4J is a schematic view of PSM-induced signaling pathway that mediates IFN-I activation. Data are presented as mean±S.D.; *, P <0.05, **, P <0.01; (see also FIG. 10A, FIG. 10B, FIG. 10C, FIG. 10D, FIG. 10E, and FIG. 10F);
FIG. 10A, FIG. 10B, FIG. 10C, FIG. 10D, FIG. 10E, and FIG. 10F show PSM induced activation of IFN-I signaling in DCs. […]
Real-Time PCR. […] The expression of individual genes was calculated by a ΔΔCT method, and normalized to the expression of β-actin. […]

[2] = tested on: DCs (DC2.4 cells, BMDCs); experiment: DC uptake of PSM/FITC-OVA in cell culture
Description: FIG. 1A, FIG. 1B, FIG. 1C, FIG. 1D, FIG. 1E, FIG. 1F, and FIG. 1G show PSM-loaded antigen was efficiently internalized by dendritic cells (DCs) through phagocytosis and macropinocytosis. […] Upper panel, DC2.4 cells; lower panel, bone-marrow-derived dendritic cells (BMDCs). Scale bar, 25 μm. FIG. 1B is a representative transmission electron microscopy (TEM) image showing the vesicular structure around a PSM/OVA particle inside a DC. Upper panel magnification=5,000×; lower panel magnification=50,000×. Upper panel scale bar=4 μm; lower panel bar=0.5 μm. […] The DCs were extensively washed after priming with 5 μg/mL soluble peptide or PSM/peptides, and either immediately co-incubated with B3Z cells (0 hrs), or cultured for 18 to 30 hrs before T-cell co-incubation; Data are presented as mean±S.D.; *, P <0.05, **, P <0.01; (See also FIG. 7A-FIG. 7E);
Confocal Laser Scanning Microscopy. DC2.4 cells or BMDCs were seeded on eight-well chamber slides at a density of 1×10^5 cells/well and cultured for 24 hrs at 37° C. Each well was washed twice with PBS, and the cells were pulsed with FITC-OVA or PSM/FITC-OVA for 20 min. Cells were washed twice with PBS and incubated for an additional 30 min, 1, 3, or 6 hours in culture medium at 37° C. […] The samples were embedded with Prolong® Gold anti-fade reagent with DAPI (Invitrogen) and analyzed by confocal laser scanning microscopy (Olympus IX81). […]

[3] = tested on: DCs; experiment: Intracellular antigen trafficking by confocal microscopy
Experimental: FIG. 2A, FIG. 2B, and FIG. 2C show antigen presentation of PSM-loaded OVA. FIG. 2A illustrates subcellular transport of antigens. DCs were incubated with PSM/FITC-OVA for 0.5 hrs, and then washed extensively to remove unbound particles. The cells were cultured for an additional 0.5 hr, 1 hr, 3 hrs, or 6 hrs before fixation, followed by immunostaining with antibodies recognizing specific organelles (EEA1 for early endosome; Rab7 for late endosome; TR for recycling endosome; and KDEL for the ER). Scale bar=25 μm. […] Peptide I (100 ng/mL) served as the positive control. […] BMDCs were incubated with OVA or PSM/OVA for 16 hrs, followed by harvest and labeling with the anti-CD11c antibody identifying DCs and the 25D1.16 antibody recognizing OVA257-264/H-2K^b complex on DC surface. Percentages of 25D1.16-staining positive populations in DCs are shown in red numbers. Data are presented as mean±S.D; *, P <0.05, **, P <0.01 (see also FIG. 8A, FIG. 8B and FIG. 8C);
Confocal Laser Scanning Microscopy. DC2.4 cells or BMDCs were seeded on eight-well chamber slides at a density of 1×10^5 cells/well and cultured for 24 hrs at 37° C. Each well was washed twice with PBS, and the cells were pulsed with FITC-OVA or PSM/FITC-OVA for 20 min. […] The samples were embedded with Prolong® Gold anti-fade reagent with DAPI (Invitrogen) and analyzed by confocal laser scanning microscopy (Olympus IX81).

[4] = tested on: OVA-specific B3Z CD8 T cells; experiment: In vitro antigen presentation assay, IL-2 production by B3Z cells; settings: DCs treated with inhibitor before co-incubation with soluble OVA
Experimental: In Vitro Antigen Presentation Assay. The in vitro antigen presentation assay was performed as previously described (Mukai et al., 2011). Briefly, DC2.4 cells or BMDCs isolated from C57BL/6 mice or TAP^−/− mice were seeded in a 96-well flat-bottom culture plates at a density of 2×10^5 cells/well, and cultured for 12 hrs at 37° C. Each well was washed once with PBS, and then the cells were pulsed with soluble OVA, PSM/OVA, OVA-derived MHC class I epitope peptide [OVA257-264; SIINFEKL (SEQ ID NO:1)], or MHC class II epitope peptide [OVA323-339; ISQAVHAAHAEINEAGR (SEQ ID NO:2); Peptide 2.0] for indicated time points, and immediately fixed with 1% paraformaldehyde. The cells were then co-cultured with 2×10^5 B3Z cells or 2×10^5 DOBW cells for 18 hrs at 37° C. The response of stimulated B3Z or DOBW cells was assessed by determining the amount of IL-2 released into the culture medium using a murine IL-2 ELISA KIT (Ebioscience, San Diego, Calif., USA). […]
T-cell response to antigen cross-presentation of PSM-loaded OVA (PSM/OVA) was next assessed in DCs using an in vitro antigen presentation assay. […] It was subsequently determined whether PSM packaging could induce sustained antigen presentation. […]

| Compound | Effect of inhibitor on IFN-I induction by PSM [1] | Effect of inhibitor pre-treatment on particle internalization [2] | further results |
| --- | --- | --- | --- |
| C=C1[C@@H](C)[C@H]2[C@H](Cc3ccccc3)NC(=O)[C@]23[C@H](OC(C)=O)/C=C/[C@@](C)(O)C(=O)[C@@H](C)C/C=C/[C@H]3[C@@H]1O [cytochalasin D] | suppressed IFN-I induction by PSM | significantly decreased particle internalization |  |
| free FITC-OVA: free FITC-conjugated ovalbumin |  |  | Signal inside DCs at 6 hrs [3]: very weak signal by 6 hour |
| N=C(N)NC(=O)c1nc(Cl)c(N)nc1N [amiloride] |  | significantly decreased particle internalization |  |
| CC(C)C[C@@H](C=O)NC(=O)[C@H](CC(C)C)NC(=O)[C@H](CC(C)C)NC(=O)OCc1ccccc1 [MG-132] (Cbz-Leu-Leu-Leu-aldehyde) |  |  | Effect on class I antigen presentation of soluble OVA [4]: completely blocked |
| O=C(NCCCNc1nc(Nc2cccc(NC(=O)N3CCCC3)c2)ncc1I)c1cccs1 [BX795] | markedly inhibited IFN-I induction |  |  |
